This passage reports EC50 results from US20250026759A1 (Merck Sharp & Dohme LLC, priority 2023, published 2025).

For orientation: EC50 means the concentration at which the effect is half-maximal.

Molecules are shown by their SMILES.

One test relates to PBMCs infected with VSV-G pseudotyped HIV virus (VSV-G/pNLG1-P2A-ΔEnv). Description: cells. The following applies: Homo sapiens, PBMC, read-out: TACK EC50. The test is classed as cell-based, human.
`CC(F)(F)[C@@]1(C#CC2CC2)NC(=O)Nc2cc(Cn3ccnc3CO)c(F)cc21` [Example 49, (S)-4-(cyclopropylethynyl)-4-(1,1-difluoroethyl)-6-fluoro-7-((2-(hydroxymethyl)-1H-imidazol-1-yl)methyl)-3,4-dihydroquinazolin-2(1H)-one]: the EC50 worked out at 0.0418 µM.
Still for that read-out and setting: as for `Cc1nc(N)sc1C(=O)NCc1cc2c(cc1F)[C@@](C#CC1CC1)(C(F)(F)F)NC(=O)N2` [Example 84, (S)-2-amino-N-((4-(cyclopropylethynyl)-6-fluoro-2-oxo-4-(trifluoromethyl)-1,2,3,4-tetrahydroquinazolin-7-yl)methyl)-4-methylthiazole-5-carboxamide], the figure is 0.273 µM; as for `CN(Cc1cc2c(cc1F)[C@@](C#CC1CC1)(C(C)(F)F)NC(=O)N2)C(=O)c1ncc[nH]1` [Example 81, (S)-N-((4-(cyclopropylethynyl)-4-(1,1-difluoroethyl)-6-fluoro-2-oxo-1,2,3,4-tetrahydroquinazolin-7-yl)methyl)-N-methyl-1H-imidazole-2-carboxamide], 0.0121 µM.
Take `CC(C)(O)c1ccn(Cc2cc3c(cc2F)[C@@](C#CC2CC2)(C(C)(F)F)NC(=O)N3)n1` [Example 129, (S)-4-(cyclopropylethynyl)-4-(1,1-difluoroethyl)-6-fluoro-7-((3-(2-hydroxypropan-2-yl)-1H-pyrazol-1-yl)methyl)-3,4-dihydroquinazolin-2(1H)-one]: the EC50 is 0.171 µM.
Turning to `Cc1ccn(Cc2cc3c(cc2F)[C@@](C#CC2CC2)(C(F)(F)F)NC(=O)N3)n1` [Example 101, (S)-4-(cyclopropylethynyl)-6-fluoro-7-((3-methyl-1H-pyrazol-1-yl)methyl)-4-(trifluoromethyl)-3,4-dihydroquinazolin-2(1H)-one], the concentration giving a half-maximal response (EC50) was 0.0138 µM.
On the same count and under the same terms, as for `O=C1Nc2cc(Cn3cnc(CO)n3)c(F)cc2[C@@](C#CC2CC2)(C(F)(F)F)N1` [Example 31, (S)-4-(cyclopropylethynyl)-6-fluoro-7-((3-(hydroxymethyl)-1H-1,2,4-triazol-1-yl)methyl)-4-(trifluoromethyl)-3,4-dihydroquinazolin-2(1H)-one], the figure is 0.0528 µM; as for `COCc1ccn(Cc2cc3c(cc2F)[C@@](C#CC2CC2)(C(F)(F)F)NC(=O)N3)n1` [Example 30, (S)-4-(cyclopropylethynyl)-6-fluoro-7-((3-(methoxymethyl)-1H-pyrazol-1-yl)methyl)-4-(trifluoromethyl)-3,4-dihydroquinazolin-2(1H)-one], 0.0365 µM.
As for `O=C1Nc2cc(Cn3c(=O)[nH]c4ncccc43)c(F)cc2[C@@](C#CC2CC2)(C(F)(F)F)N1` (single isomer, unassigned) [Example 8], the EC50 came to 0.0387 µM.
For the compound `CC(F)(F)[C@@]1(C#CC2CC2)NC(=O)Nc2cc(Cn3ncc(F)c3C(N)=O)c(F)cc21` (single isomer, unassigned) [Example 103], the EC50 is 0.0302 µM.
For the compound `CC(F)(F)[C@@]1(C#CC2CC2)NC(=O)Nc2cc(Cn3cnc(CO)n3)c(F)cc21` [Example 4, (S)-4-(cyclopropylethynyl)-4-(1,1-difluoroethyl)-6-fluoro-7-((3-(hydroxymethyl)-1H-1,2,4-triazol-1-yl)methyl)-3,4-dihydroquinazolin-2(1H)-one], the EC50 was 0.0677 µM.
With `COCc1ncn(Cc2cc3c(cc2F)[C@@](C#CC2CC2)(C(C)(F)F)NC(=O)N3)n1` [Example 65, (S)-4-(cyclopropylethynyl)-4-(1,1-difluoroethyl)-6-fluoro-7-((3-(methoxymethyl)-1H-1,2,4-triazol-1-yl)methyl)-3,4-dihydroquinazolin-2(1H)-one], the EC50 came out at 0.0381 µM.

The same test, now with this note: read-out: TACK EC50.
Regarding `COC(C)c1ccn(Cc2cc3c(cc2F)[C@@](C#CC2CC2)(C(C)(F)F)NC(=O)N3)n1` (single isomer, unassigned) [Example 58, (S)-4-(cyclopropylethynyl)-4-(1,1-difluoroethyl)-6-fluoro-7-((3-((R or S)-1-methoxyethyl)-1H-pyrazol-1-yl)methyl)-3,4-dihydroquinazolin-2(1H)-one], the EC50 is 0.025 µM.
